We go through 35 molecules from patent publication US8008298B2, “Pyrrolopyrazine kinase inhibitors” (Roche Palo Alto, priority 2008, dated 2011).

Counter-ions that a name gives are not always drawn.

Take `COc1cc(-c2cnc3[nH]cc(C(=O)NCC(C)OC)c3n2)cc(OC)c1OC` (centres unmarked) (as salt: hydrochloride) [Example 24, 2-(3,4,5-Trimethoxy-phenyl)-5H-pyrrolo[2,3-b]pyrazine-7-carboxylic acid (2-methoxy-propyl)-amide]: the melting point – broadly, the temperature, or range, at which the solid turns liquid – fell in the range of 199 to 200 °C. The molecule `COc1cc(-c2cnc3[nH]cc(C(=O)NCC(C)(C)CO)c3n2)cc(OC)c1OC` [Example 15, 2-(3,4,5-Trimethoxy-phenyl)-5H-pyrrolo[2,3-b]pyrazine-7-carboxylic acid (3-hydroxy-2,2-dimethyl-propyl)-amide] came in with a melting point of 224 to 225 °C. `COc1ccc(-c2cnc3[nH]cc(C(N)=O)c3n2)cc1OC` [Example 18, 2-(3,4-Dimethoxy-phenyl)-5H-pyrrolo[2,3-b]pyrazine-7-carboxylic acid amide] gave a melting point of 290 to 292.4 °C. Consider `COc1cc(-c2cnc3[nH]cc(C(=O)NCC(C)O)c3n2)cc(OC)c1OC` (centres unmarked) [Example 22, 2-(3,4,5-Trimethoxy-phenyl)-5H-pyrrolo[2,3-b]pyrazine-7-carboxylic acid (2-hydroxy-propyl)-amide], for which the melting point fell in the range of 201.9 to 202.6 °C. Take `COc1cc(-c2cnc3[nH]cc(C(=O)NC4CCCOC4)c3n2)cc(OC)c1OC` (centres unmarked) [Example 23, 2-(3,4,5-Trimethoxy-phenyl)-5H-pyrrolo[2,3-b]pyrazine-7-carboxylic acid (tetrahydro-pyran-3-yl)-amide]: the melting point is 191 to 192 °C. The result for `COc1ccc(-c2cnc3[nH]cc(C(=O)NC4CCN(C)C4)c3n2)cc1OC` (centres unmarked) [Example 25, 2-(3,4-Dimethoxy-phenyl)-5H-pyrrolo[2,3-b]pyrazine-7-carboxylic acid (1-methyl-pyrrolidin-3-yl)-amide] reads 193 to 194 °C. The result for `COc1ccc(-c2cnc3[nH]cc(C(=O)NC4CCN(C(C)=O)C4)c3n2)cc1OC` (centres unmarked) [Example 26, 2-(3,4-Dimethoxy-phenyl)-5H-pyrrolo[2,3-b]pyrazine-7-carboxylic acid (1-acetyl-pyrrolidin-3-yl)-amide] reads 211 to 212 °C; that for `CC(C)(C)C(=O)c1c[nH]c2ncc(-c3cccc(N4CCCC4)c3)nc12` [Example 33, 2,2-dimethyl-1-[2-(3-pyrrolidin-1-yl-phenyl)-5H-pyrrolo[2,3-b]pyrazin-7-yl]-propan-1-one], 259 to 260 °C. The figure for `CC1(C(=O)c2c[nH]c3ncc(-c4cccc(N5CCCC5)c4)nc23)CCCCC1` [Example 36, (1-Methyl-cyclohexyl)-[2-(3-pyrrolidin-1-yl-phenyl)-5H-pyrrolo[2,3-b]pyrazin-7-yl]-methanone] is 243 to 245.4 °C. Take `COc1cc(-c2cnc3[nH]cc(C(=O)C(C)(CO)CO)c3n2)cc(OC)c1OC` [Example 58, 3-Hydroxy-2-hydroxymethyl-2-methyl-1-[2-(3,4,5-trimethoxy-phenyl)-5H-pyrrolo[2,3-b]pyrazin-7-yl]-propan-1-one]: the melting point fell in the range of 222 to 223 °C. Take `COc1cc(-c2cnc3[nH]cc(C(=O)CC(C)C)c3n2)cc(OC)c1OC` [Example 63, 3-methyl-1-[2-(3,4,5-trimethoxy-phenyl)-5H-pyrrolo[2,3-b]pyrazin-7-yl]-butan-1-one]: the melting point lay in the range of 210 to 211.4 °C. In turn, `COc1cc(-c2cnc3[nH]cc(C(=O)Cc4ccccc4)c3n2)cc(OC)c1OC` [Example 64, 2-phenyl-1-[2-(3,4,5-trimethoxy-phenyl]-5H-pyrrolo[2,3-b]pyrazin-7-yl]-ethanone] displayed a melting point of 226 to 227 °C.

For the molecule `COc1cc(-c2cnc3[nH]cc(C(=O)C(C)(C)C)c3n2)cc(OC)c1OC` [Example 67, 2,2-Dimethyl-1-[2-(3,4,5-trimethoxy-phenyl)-5H-pyrrolo[2,3-b]pyrazin-7-yl]-propan-1-one], the melting point was 240 to 241 °C.

The molecule `COc1cc(-c2cnc3[nH]cc(C(=O)C(C)C)c3n2)cc(OC)c1OC` [Example 68, 2-Methyl-1-[2-(3,4,5-trimethoxy-phenyl)-5H-pyrrolo[2,3-b]pyrazin-7-yl]-propan-1-one] registered a melting point of 189 to 190 °C. The figure for `CCOC(C)(OCC)C(=O)c1c[nH]c2ncc(-c3cc(OC)c(OC)c(OC)c3)nc12` [Example 72, 2,2-Diethoxy-1-[2-(3,4,5-trimethoxy-phenyl)-5H-pyrrolo[2,3-b]pyrazin-7-yl]-propan-1-one] is 198.2 to 201 °C; for `COc1cc(-c2cnc3[nH]cc(C(=O)C(=O)N(C)C)c3n2)cc(OC)c1OC` [Example 74, N,N-Dimethyl-2-oxo-2-[2-(3,4,5-trimethoxy-phenyl)-5H-pyrrolo[2,3-b]pyrazin-7-yl]-acetamide] it is 227 to 228 °C; for `CC(C)(C)C(=O)c1c[nH]c2ncc(-c3cccc(N4CCN(C(=O)CC#N)CC4)c3)nc12` [Example 90, 3-(4-{3-[7-(2,2-Dimethyl-propionyl)-5H-pyrrolo[2,3-b]pyrazin-2-yl]-phenyl}-piperazin-1-yl)-3-oxo-propionitrile] it is 240 to 242 °C. With `CC(C)(C)C(=O)c1c[nH]c2ncc(-c3cc(N4CCCC4)cc(N4CCCC4)c3)nc12` [Example 97, 1-[2-(3,5-Di-pyrrolidin-1-yl-phenyl)-5H-pyrrolo[2,3-b]pyrazin-7-yl]-2,2-dimethyl-propan-1-one], the melting point lay within 291 to 303 °C. The result for `COc1ccc(-c2cnc3[nH]cc(C(=O)C(C)(C)C)c3n2)cc1` [Example 98, 1-[2-(4-Methoxy-phenyl)-5H-pyrrolo[2,3-b]pyrazin-7-yl]-2,2-dimethyl-propan-1-one] reads 207 to 208 °C; that for `COc1ccc(-c2cnc3[nH]cc(C(=O)C(C)(C)C)c3n2)cc1N1CCCC1` [Example 101, 1-[2-(4-Methoxy-3-pyrrolidin-1-yl-phenyl)-5H-pyrrolo[2,3-b]pyrazin-7-yl]-2,2-dimethyl-propan-1-one], 211 to 213 °C; that for `C[S+]([O-])c1ccc(-c2cnc3[nH]cc(C(=O)C(C)(C)C)c3n2)cc1N1CCCC1` (centres unmarked) [Example 107, 1-[2-(4-Methanesulfinyl-3-pyrrolidin-1-yl-phenyl)-5H-pyrrolo[2,3-b]pyrazin-7-yl]-2,2-dimethyl-propan-1-one], 150 to 152 °C.

`CC(C)(C)C(=O)c1c[nH]c2ncc(-c3cccc(N4CCC(S(C)(=O)=O)C4)c3)nc12` (centres unmarked) [Example 109, 1-{2-[3-(3-Methanesulfonyl-pyrrolidin-1-yl)-phenyl]-5H-pyrrolo[2,3-b]pyrazin-7-yl}-2,2-dimethyl-propan-1-one] registered a melting point of 223 to 225 °C. The result for `COC1CN(c2cccc(-c3cnc4[nH]cc(C(=O)C(C)(C)C)c4n3)c2)C1` [Example 111, 1-{2-[3-(3-Methoxy-azetidin-1-yl)-phenyl]-5H-pyrrolo[2,3-b]pyrazin-7-yl}-2,2-dimethyl-propan-1-one] reads 196 to 198 °C; that for `COc1cc(-c2cnc3[nH]cc(C(=O)CCC(C)OC)c3n2)cc(OC)c1OC` (centres unmarked) [Example 129, 4-Methoxy-1-[2-(3,4,5-trimethoxy-phenyl)-5H-pyrrolo[2,3-b]pyrazin-7-yl]-pentan-1-one], 150 to 151 °C. `COc1cc(-c2cnc3[nH]cc(C(=O)C(C)(C)OC)c3n2)cc(OC)c1OC` [Example 131, 2-Methoxy-2-methyl-1-[2-(3,4,5-trimethoxy-phenyl)-5H-pyrrolo[2,3-b]pyrazin-7-yl]-propan-1-one] yielded a melting point of 237.8 to 239.1 °C. `COCC(=O)c1c[nH]c2ncc(-c3cc(OC)c(OC)c(OC)c3)nc12` [Example 132, 2-Methoxy-1-[2-(3,4,5-trimethoxy-phenyl)-5H-pyrrolo[2,3-b]pyrazin-7-yl]-ethanone] registered a melting point of 229 to 230 °C. The result for `CCOc1cccc(-c2cnc3[nH]cc(C(=O)C(C)(C)C)c3n2)c1` [Example 136, 1-[2-(3-Ethoxy-phenyl)-5H-pyrrolo[2,3-b]pyrazin-7-yl]-2,2-dimethyl-propan-1-one] reads 195 to 196 °C.

Consider `CC(C)COc1cccc(-c2cnc3[nH]cc(C(=O)C(C)(C)C)c3n2)c1` [Example 137, 1-[2-(3-Isobutoxy-phenyl)-5H-pyrrolo[2,3-b]pyrazin-7-yl]-2,2-dimethyl-propan-1-one], for which the melting point is 177 to 178 °C. The result for `CC(C)Oc1cccc(-c2cnc3[nH]cc(C(=O)C(C)(C)C)c3n2)c1` [Example 138, 1-[2-(3-Isopropoxy-phenyl)-5H-pyrrolo[2,3-b]pyrazin-7-yl]-2,2-dimethyl-propan-1-one] reads 149 to 150 °C.

`CCCOc1cccc(-c2cnc3[nH]cc(C(=O)C(C)(C)C)c3n2)c1` [Example 139, 2,2-Dimethyl-1-[2-(3-propoxy-phenyl)-5H-pyrrolo[2,3-b]pyrazin-7-yl]-propan-1-one]: the melting point lay within 179 to 180 °C.

`CC(C)(C)C(=O)c1c[nH]c2ncc(-c3ccc(S(N)(=O)=O)cc3)nc12` [Example 140, 4-[7-(2,2-Dimethyl-propionyl)-5H-pyrrolo[2,3-b]pyrazin-2-yl]-benzenesulfonamide] gave a melting point of 277 to 278 °C. The figure for `CNS(=O)(=O)c1cccc(-c2cnc3[nH]cc(C(=O)C(C)(C)C)c3n2)c1` [Example 141, 3-[7-(2,2-Dimethyl-propionyl)-5H-pyrrolo[2,3-b]pyrazin-2-yl]-N-methyl-benzenesulfonamide] is 245 to 247 °C. The figure for `CNS(=O)(=O)c1ccc(-c2cnc3[nH]cc(C(=O)C(C)(C)C)c3n2)cc1` [Example 142, 4-[7-(2,2-Dimethyl-propionyl)-5H-pyrrolo[2,3-b]pyrazin-2-yl]-N-methyl-benzenesulfonamide] is 278 to 280 °C; for `CC(C)(C)C(=O)c1c[nH]c2ncc(-c3cccc(CCCO)c3)nc12` [Example 143, 1-{2-[3-(3-Hydroxy-propyl)-phenyl]-5H-pyrrolo[2,3-b]pyrazin-7-yl}-2,2-dimethyl-propan-1-one] it is 170 to 171 °C. The result for `CC(C)(C)C(=O)c1c[nH]c2ncc(-c3cccc(S(N)(=O)=O)c3)nc12` [Example 144, 3-[7-(2,2-Dimethyl-propionyl)-5H-pyrrolo[2,3-b]pyrazin-2-yl]-benzenesulfonamide] reads 275 to 277 °C.
